Source: ChEMBL document CHEMBL1201862, “PubChem BioAssay data set” (2004)
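Growth conditions: 96-well plates. Treatment: test compound, 48 hours, 5 concentrations. Analysis: linear interpolation between bracketing concentrations; unreached endpoints set to highest concentration. The concentration for 50% growth inhibition is given as GI50.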 Calls of active or inactive are those of the source. Cut-off read from the data, not from the text of the source: active = GI50 up to about 1.1 µM and inactive = higher.

Experiments:
Assay in all cases: NCI tumour cell line growth inhibition, 48 h
SNB-19 = tested on: SNB-19
UACC-257 = tested on: UACC-257
HOP-92 = tested on: HOP-92
MOLT-4 = tested on: MOLT-4
SF-268 = tested on: SF-268
SK-MEL-5 = tested on: SK-MEL-5
SK-MEL-2 = tested on: SK-MEL-2
K562 = tested on: K562
SW-620 = tested on: SW-620
KM12 = tested on: KM12
HT-29 = tested on: HT-29
TK-10 = tested on: TK-10
OVCAR-4 = tested on: OVCAR-4
SR = tested on: SR
OVCAR-8 = tested on: OVCAR-8
SNB-75 = tested on: SNB-75

Measured: GI50

C=C1CC2(CCS(=O)(=O)c3ccccc32)OC1=O (stereo not given)
inactive: SNB-19 10.2 µM | UACC-257 14.5 µM | HOP-92 3.72 µM | MOLT-4 3.49 µM | SF-268 17.2 µM | SK-MEL-5 12.4 µM | SK-MEL-2 10.7 µM | K562 4.04 µM | SW-620 3.01 µM | KM12 16 µM | HT-29 12.2 µM | TK-10 12.9 µM | OVCAR-4 13.7 µM

C/C(=N/NC(=O)C[n+]1ccccc1)C(CN(CC(C)C)CC(C)C)C(=O)Nc1ccc(C)cc1C (stereo not given)
inactive: SNB-19 26.7 µM | UACC-257 > 100 µM | HOP-92 43.3 µM | MOLT-4 > 100 µM | SF-268 > 100 µM | SK-MEL-5 > 100 µM | SK-MEL-2 > 100 µM | K562 > 100 µM | SR > 100 µM | SW-620 > 100 µM | HT-29 > 100 µM | OVCAR-8 > 100 µM | TK-10 78.2 µM | OVCAR-4 > 100 µM

COC(=O)[C@]1(C)CCC[C@@]2(C)C1CCC1=C[C@@]3(C(C)C)CC[C@]12OO3 (stereo not given in full)
inactive: SNB-19 58.2 µM | UACC-257 26.2 µM | MOLT-4 25.8 µM | SF-268 24.7 µM | SK-MEL-5 15.7 µM | SK-MEL-2 36.5 µM | K562 25.9 µM | SR 19.4 µM | SW-620 36.1 µM | KM12 24.6 µM | HT-29 15.2 µM | OVCAR-8 35.8 µM | TK-10 > 100 µM | OVCAR-4 42.3 µM

CC(C)(C)c1cc2c3c(c1)c(=O)c1cccc4c(O)c5cccc(c2=O)c5c-3c41
inactive: SNB-19 > 100 µM | UACC-257 > 100 µM | HOP-92 36.6 µM | MOLT-4 38.1 µM | SF-268 > 100 µM | SK-MEL-2 24.7 µM | K562 38.5 µM | SR 15.3 µM | SW-620 > 100 µM | SNB-75 > 100 µM | KM12 38.1 µM | HT-29 27.7 µM | OVCAR-8 > 100 µM | TK-10 > 100 µM | OVCAR-4 > 100 µM

O=C1c2cccc3cccc(c23)C(=O)N1CCCN1CCN(CCCN2C(=O)c3cccc4cccc(c34)C2=O)CC1
inactive: SNB-19 > 100 µM | UACC-257 > 100 µM | HOP-92 > 100 µM | MOLT-4 > 100 µM | SK-MEL-5 > 100 µM | SK-MEL-2 > 100 µM | K562 > 100 µM | SW-620 > 100 µM | SNB-75 > 100 µM | KM12 > 100 µM | HT-29 > 100 µM | OVCAR-8 > 100 µM | TK-10 > 100 µM | OVCAR-4 > 100 µM

COc1nc(C(=O)O)c(Cl)c(OC)c1Cl
inactive: SNB-19 > 100 µM | UACC-257 > 100 µM | HOP-92 > 100 µM | MOLT-4 > 100 µM | SF-268 > 100 µM | SK-MEL-5 > 100 µM | SK-MEL-2 > 100 µM | K562 > 10 µM | SR > 100 µM | SW-620 > 100 µM | KM12 > 100 µM | HT-29 > 100 µM | OVCAR-8 > 100 µM | TK-10 > 100 µM | OVCAR-4 > 100 µM

O=C(Nc1ccccc1[N+](=O)[O-])c1ccccc1
inactive: SNB-19 > 100 µM | UACC-257 > 100 µM | HOP-92 65.9 µM | MOLT-4 53 µM | SF-268 > 100 µM | SK-MEL-5 > 100 µM | K562 > 100 µM | SW-620 > 100 µM | SNB-75 65.3 µM | KM12 55.5 µM | HT-29 > 100 µM | OVCAR-8 > 100 µM | TK-10 > 100 µM | OVCAR-4 82.6 µM

COc1ccc(C)cc1-c1ccc(-c2cc(C)ccc2OC)o1
inactive: SNB-19 > 100 µM | UACC-257 > 100 µM | HOP-92 54.6 µM | MOLT-4 > 100 µM | SF-268 > 100 µM | SK-MEL-2 56.9 µM | K562 > 100 µM | SW-620 > 100 µM | SNB-75 > 100 µM | KM12 > 100 µM | HT-29 > 100 µM | OVCAR-8 > 100 µM | TK-10 > 100 µM | OVCAR-4 > 100 µM

CCOC(=O)C(=O)Nc1ccccc1OCC
inactive: SNB-19 > 100 µM | UACC-257 > 100 µM | HOP-92 > 100 µM | MOLT-4 > 100 µM | SF-268 > 100 µM | SK-MEL-5 > 100 µM | SK-MEL-2 > 100 µM | K562 > 100 µM | SW-620 > 100 µM | KM12 > 100 µM | HT-29 > 100 µM | OVCAR-8 > 100 µM | TK-10 > 100 µM | OVCAR-4 > 100 µM

CC(=O)NC1=C(NCCO)C(=O)c2ccccc2C1=O
inactive: SNB-19 > 50 µM | UACC-257 > 50 µM | MOLT-4 > 50 µM | SF-268 > 50 µM | SK-MEL-5 29.9 µM | SK-MEL-2 > 50 µM | K562 > 50 µM | SR > 50 µM | SW-620 > 50 µM | SNB-75 > 50 µM | KM12 > 50 µM | HT-29 > 50 µM | OVCAR-8 > 50 µM | TK-10 > 50 µM | OVCAR-4 > 50 µM

CN1N=CSC12C(=O)N(c1ccccc1)C(=O)N2c1ccccc1 (stereo not given)
inactive: SNB-19 > 100 µM | UACC-257 > 100 µM | MOLT-4 > 100 µM | SF-268 > 100 µM | SK-MEL-5 > 100 µM | SK-MEL-2 > 100 µM | K562 > 100 µM | SW-620 > 100 µM | SNB-75 > 100 µM | KM12 > 100 µM | HT-29 > 100 µM | OVCAR-8 > 100 µM | TK-10 > 100 µM | OVCAR-4 82.2 µM

CC1SC2=NC3=C(c4ccccc4C3=O)C(c3ccc(Cl)cc3)N2C1=O (stereo not given)
inactive: SNB-19 > 100 µM | UACC-257 > 100 µM | HOP-92 22.3 µM | MOLT-4 > 100 µM | SF-268 > 100 µM | SK-MEL-5 > 100 µM | SK-MEL-2 > 100 µM | K562 > 100 µM | SW-620 > 100 µM | SNB-75 45.8 µM | KM12 > 100 µM | HT-29 > 100 µM | OVCAR-8 > 100 µM | TK-10 > 100 µM | OVCAR-4 61.1 µM

COc1ccc(/C=C/C(=O)c2sc(NC(=S)NC(=O)c3ccccc3F)nc2C)cc1OC
inactive: SNB-19 > 100 µM | HOP-92 98.9 µM | MOLT-4 65.6 µM | SF-268 > 100 µM | SK-MEL-5 88.3 µM | SK-MEL-2 > 100 µM | K562 > 100 µM | SW-620 > 100 µM | SNB-75 26.5 µM | KM12 > 100 µM | OVCAR-8 > 100 µM | TK-10 > 100 µM

C=C[C@H]1C=Cc2c(OC)cccc2[C@@H]1COP1(=S)NC(C)C(c2ccccc2)O1 (stereo not given in full)
inactive: SNB-19 > 100 µM | MOLT-4 33.9 µM | SF-268 62.1 µM | SK-MEL-5 44.2 µM | K562 37.1 µM | SW-620 > 100 µM | SNB-75 > 100 µM | KM12 > 100 µM | HT-29 79.6 µM | OVCAR-8 81.5 µM | TK-10 > 100 µM | OVCAR-4 > 100 µM
